For twelve compounds, MIC results are on record in patent US20090143438A1, “Novel Pyridine Derivative Having Anti-Helicobacter Pylori Activity” (Arigen Pharmaceuticals, Inc., priority 2006, published 2009).

For experiment [1], the system named is H. pylori, ATCC 43504. Briefly: Antibacterial power test, Columbia agar, MIC. The note with it: Helicobacter pylori, ATCC43504, 72 h, 37° C., pH 7.0, 3 days, read on 4th day, read-out: MIC, in vitro anti-Helicobacter pylori activity. The class given is cell-based, Helicobacter pylori. As to the method: An in vitro test was performed in a Columbia agar medium using a standard strain of H. pylori, ATCC 43504. […] Each of the test objects was dissolved in a 1% DMSO solution. Furthermore, as antibiotic control drugs, ampicillin from the penicillin family (control drug 1), gentamycin from the aminoglycoside family (control drug 2), tetracycline from the tetracycline family (control drug 3), and ofloxacin from the new quinolone family (control drug 4) were used.

For experiment [2], the system named is Helicobacter pylori NCTC11637. The note with it: standard strain NCTC11637; data from Table 6 of JP-A No. 7-69888; cited from earlier work.
The test system of experiment [3] is Helicobacter pylori NCTC11916. The note with it: standard strain NCTC11916; data from Table 6 of JP-A No. 7-69888; cited from earlier work.
The test system of experiment [4] is H. pylori NCTC 11916. In words: In vitro MIC test in Columbia agar, standard strain. Type of experiment: cell-based, Helicobacter pylori. The note with it: Helicobacter pylori, NCTC11916, 72 h; standard strain NCTC 11916; 37° C., pH 7.0, 3 days. As to the method: (§1) An in vitro test was performed in a Columbia agar medium using standard strains of H. pylori, NCTC 11637 and 11916, clinical isolates PT#1045482, PT#1045483 and PT#1045484, and ofloxacin- and roxithromycin-resistant, clinical isolates TY2, 4 and 5. Each of the test objects was dissolved in a 1% DMSO solution. Furthermore, as antibiotic control drugs, roxithromycin from the macrolide family and ofloxacin from the new quinolone family were used. The strains were cultured at 37° C. and pH 7.0 for 3 days, and on the 4th day, the minimum inhibitory concentrations (MIC, μg/ml) were determined.

The test system of experiment [5] is H. pylori NCTC 11637. Described as above. The class given is cell-based, Helicobacter pylori. The note with it: Helicobacter pylori, NCTC11637, 72 h; standard strain NCTC 11637; 37° C., pH 7.0, 3 days. As to the method: as §1
Experiment [6] deals with H. pylori clinical isolate PT#1045483. In words: In vitro MIC test in Columbia agar, clinical isolate. Type of experiment: cell-based. The note with it: Helicobacter pylori, 72 h, 37° C., pH 7.0, 3 days. As to the method:
as §1

In experiment [7] the test system is H. pylori clinical isolate PT#1045484. The experiment is described as above. Type of experiment: cell-based. The note with it: Helicobacter pylori, 72 h, 37° C., pH 7.0, 3 days. As to the method: as §1
The test system of experiment [8] is H. pylori clinical isolate PT#1045482. The description is as above. The class given is cell-based. The note with it: Helicobacter pylori, 72 h, 37° C., pH 7.0, 3 days. As to the method: as §1
For experiment [9], the system named is H. pylori ofloxacin- and roxithromycin-resistant clinical isolate TY5. In words: In vitro MIC test in Columbia agar, resistant clinical isolate. Type of experiment: cell-based. The note with it: Helicobacter pylori, 72 h; resistant strain TY5; 37° C., pH 7.0, 3 days. As to the method: as §1
Experiment [10] relates to H. pylori ofloxacin- and roxithromycin-resistant clinical isolate TY2. The experiment is described as above. The class given is cell-based. The note with it: Helicobacter pylori, 72 h; resistant strain TY2; 37° C., pH 7.0, 3 days. As to the method: as §1
Experiment [11] relates to H. pylori ofloxacin- and roxithromycin-resistant clinical isolate TY4. The description is as above. The note with it: Helicobacter pylori, 72 h; resistant strain TY4; 37° C., pH 7.0, 3 days. The class given is cell-based. As to the method: as §1

In brackets after ≈: the same amount, converted by molar mass. A value given as a limit tells only on which side of the number the result lay.

Take `CN(C)[C@@H]1C(O)=C(C(N)=O)C(=O)[C@@]2(O)C(O)=C3C(=O)c4c(O)cccc4[C@@](C)(O)[C@H]3C[C@@H]12` [Control Drug 3 (Tetracycline), tetracycline, reference compound]: the MIC in [1] was found to be 0.3 µg/mL (≈ 0.675 µM).
`Cc1c(OCC(F)(F)F)ccnc1C[S+]([O-])c1nc2ccccc2[nH]1` (centres unmarked) [(c), 2-[3-methyl-4-(2,2,2-trifluoroethoxy)pyridine-2-yl]methylsulfinyl-1H-benzimidazole]: the MIC in [2] was 6.25 µg/mL (≈ 16.9 µM); in experiment [3], 12.5 µg/mL (≈ 33.8 µM).
As for `Cc1c(OCCCO)ccnc1CSc1nc2ccccc2[nH]1` [Comparative Compound 2, 2-[{4-(3-hydroxypropoxy)-3-methylpyridin-2-yl}methylthio]-1H-benzimidazole, reference compound], in experiment [1], the minimum inhibitory concentration (MIC) stood at 3 µg/mL (≈ 9.11 µM).
Take `Cc1c(OCC(F)(F)F)ccnc1CSc1nc2ccccc2[nH]1` [(d), 2-[3-methyl-4-(2,2,2-trifluoroethoxy)pyridine-2-yl]methylthio-1H-benzimidazole]: the MIC in [2] and in experiment [3] was 1.56 µg/mL (≈ 4.41 µM) in each case.
As to `Cc1c(OCCO)ccnc1CSc1nc2ccccc2[nH]1` [Comparative Compound 1, 2-[{4-(2-hydroxyethoxy)-3-methylpyridin-2-yl}methylthio]-1H-benzimidazole, reference compound], the MIC in experiment [1] stood at 10 µg/mL (≈ 31.7 µM).
As to `COc1ccc2[nH]c(SCc3ncc(C)c(OC)c3C)nc2c1` [(b), 5-methoxy-2-(4-methoxy-3,5-dimethylpyridin-2-yl)methylthio-1H-benzimidazole], the MIC in experiment [2] and in experiment [3] was 12.5 µg/mL (≈ 37.9 µM) throughout.
With `COCCCOc1ccnc(C[S+]([O-])c2nc3ccccc3[nH]2)c1C.[Na]` (centres unmarked) [(e), 2-[4-(3-methoxypropoxy)-3-methylpyridin-2-yl]methylsulfinyl-1H-benzimidazole sodium salt], the values for the MIC in experiment [2] and in experiment [3] were 0.8 µg/mL and 1.56 µg/mL, respectively.
`COc1ccc2[nH]c([S+]([O-])Cc3ncc(C)c(OC)c3C)nc2c1` (centres unmarked) [(a), 5-methoxy-2-(4-methoxy-3,5-dimethylpyridin-2-yl)methylsulfinyl-1H-benzimidazole]: the MIC in experiment [2] and in experiment [3] was 50 µg/mL (≈ 145 µM) each time.
In the case of `CC[C@H]1OC(=O)[C@H](C)[C@@H](O[C@H]2C[C@@](C)(OC)[C@@H](O)[C@H](C)O2)[C@H](C)[C@@H](O[C@@H]2O[C@H](C)C[C@H](N(C)C)[C@H]2O)[C@](C)(O)C[C@@H](C)/C(=N\OCOCCOC)[C@H](C)[C@@H](O)[C@]1(C)O` [RXM, roxithromycin, reference compound], the MIC in [4] is 0.1 µg/mL (≈ 0.119 µM); in experiment [5] it was 0.2 µg/mL (≈ 0.239 µM); in experiment [2], 0.2 µg/mL (≈ 0.239 µM); in experiment [3], 0.1 µg/mL (≈ 0.119 µM); in [6], 0.2 µg/mL (≈ 0.239 µM); in experiment [7], 0.2 µg/mL (≈ 0.239 µM). Also, the MIC in [8] is 0.4 µg/mL (≈ 0.478 µM); in experiment [9], 3.5 µg/mL (≈ 4.18 µM); in experiment [10], more than 100 µg/mL; in experiment [11], more than 100 µg/mL.
`CC1COc2c(N3CCN(C)CC3)c(F)cc3c(=O)c(C(=O)O)cn1c23` (centres unmarked) [Control Drug 4 (Ofloxacin), ofloxacin, reference compound]: the MIC in experiment [4] was found to be 0.8 µg/mL (≈ 2.21 µM); in [5] it was 0.8 µg/mL (≈ 2.21 µM); in [1], 1 µg/mL (≈ 2.77 µM); in experiment [6] it was 0.8 µg/mL (≈ 2.21 µM); in experiment [7] it was 0.4 µg/mL (≈ 1.11 µM); in experiment [8] it was 0.8 µg/mL (≈ 2.21 µM). Further, the minimum inhibitory concentration (MIC) turned out to be 2.5 µg/mL (≈ 6.92 µM) in experiment [9], 2.5 µg/mL (≈ 6.92 µM) in experiment [10] and 25 µg/mL (≈ 69.2 µM) in [11].
On to `CC1(C)S[C@@H]2[C@H](NC(=O)[C@H](N)c3ccccc3)C(=O)N2[C@H]1C(=O)O` [Control Drug 1 (Ampicillin), ampicillin, reference compound], for which the MIC in [1] was 0.1 µg/mL (≈ 0.286 µM).
For `COCCCOc1ccnc(CSc2nc3ccccc3[nH]2)c1C` [(f), 2-[4-(3-methoxypropoxy)-3-methylpyridin-2-yl]methylthio-1H-benzimidazole], the MIC in experiment [2] is 0.8 µg/mL (≈ 2.33 µM); in [3], 1.56 µg/mL (≈ 4.54 µM).
